The values that follow come from article PMC9276577, “SIRT1 pharmacological activation rescues vascular dysfunction and prevents thrombosis in MTHFR deficiency” (Cellular and Molecular Life Sciences: CMLS, 2022).

Test [1] has as its target T1, SIRT1 (Homo sapiens, UniProt Q96EB6).
T1 sequence (Q96EB6 2-747): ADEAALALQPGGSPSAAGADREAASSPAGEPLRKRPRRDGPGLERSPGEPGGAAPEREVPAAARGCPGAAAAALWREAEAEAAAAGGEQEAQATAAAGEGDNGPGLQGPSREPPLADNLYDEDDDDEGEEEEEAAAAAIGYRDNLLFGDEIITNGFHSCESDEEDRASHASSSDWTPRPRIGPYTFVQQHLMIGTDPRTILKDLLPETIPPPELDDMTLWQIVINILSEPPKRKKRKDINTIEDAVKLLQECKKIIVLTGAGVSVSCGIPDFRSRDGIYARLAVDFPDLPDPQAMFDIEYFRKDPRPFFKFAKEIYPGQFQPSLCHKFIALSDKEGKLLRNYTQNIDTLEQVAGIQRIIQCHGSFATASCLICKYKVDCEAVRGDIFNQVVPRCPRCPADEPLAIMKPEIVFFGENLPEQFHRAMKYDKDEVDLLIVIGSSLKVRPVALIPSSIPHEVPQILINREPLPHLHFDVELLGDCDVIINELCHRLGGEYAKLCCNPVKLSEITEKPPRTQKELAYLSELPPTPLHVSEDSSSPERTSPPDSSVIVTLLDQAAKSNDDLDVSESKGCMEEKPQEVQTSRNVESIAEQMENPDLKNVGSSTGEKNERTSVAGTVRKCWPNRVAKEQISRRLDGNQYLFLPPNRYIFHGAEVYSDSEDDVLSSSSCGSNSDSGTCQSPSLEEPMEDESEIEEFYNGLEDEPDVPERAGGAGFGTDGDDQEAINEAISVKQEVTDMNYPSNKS
Briefly: NMase-coupled fluorescence deacetylase assay (activation, AC50) on purified SIRT1; binding supported by tyrosine fluorescence quenching and CETSA in MCF7 cells. It is filed as biochemical. Further details: SIRT1-GST purified from E. coli BL21 (full-length SIRT1 after thrombin cleavage for fluorescence quenching). Conditions: read-out: EC50 (the source's name).

Test [2] deals with T1, SIRT1. Briefly: CETSA in MCF7 cells (Tm raised from […] °C to […] °C). It is filed as cell-based. Further details: endogenous SIRT1 in MCF7 cells.

Consider ISIDE11, for which the AC50 at SIRT1 [1] amounted to 20.11 ± 0.15 µM.
Take `Oc1ccc(/C=C/c2cc(O)cc(O)c2)cc1` [RSV, resveratrol]: the “CETSA in MCF7 cells (Tm raised from 46.5 °C to 51.4 °C)” value on SIRT1 [2] worked out at 51.4 °C.
